The values below come from US6858647B2, “Retinoid compounds suited for antibacterial applications” (Galderma Research & Development S.N.C., priority 2000, dated 2005).

≈ marks a conversion by molar mass, not a printed value. Where two headings read alike, the source gives them in different places.

The test system of assay [1] is bacterium Staphylococcus aureus. Put plainly: Minimum bactericidal concentration (MBC). The following applies: Staphylococcus aureus; Table IV, Example 2; mean of at least three tests; bactericidal activity (MBC). Format: cell-based. The protocol: The technique employed to determine the minimum bactericidal concentration, or MBC, was that described in Bactéricidie, P. Courvalin et al., Editions Maloine, 1990, chapter 7, page 335.
This minimum bactericidal concentration provides an indication as to the bactericidal effect of the test compounds, i.e., the capacity of these compounds to kill the bacterium.
(§1) Each compound of the invention and each comparative example taken from the Pierre Fabre patent application No. FR-2,736,548 was tested at least three times. The mean of the test results was calculated, along with the standard deviation. The reference compound used was gentamycin.

Assay [2] relates to RAR receptor. Put plainly: Biological activity of RAR receptor antagonist / agonist type. The following applies: stated in words, no test described.
Assay [3] concerns Staphylococcus aureus CIP52.1. Put plainly: Minimum inhibitory concentration (MIC), NCCLS dilution antimicrobial susceptibility test. Format: cell-based. To be noted: Staphylococcus aureus, mean of at least three tests, read-out: MIC RESULTS MEAN.
Source text: The bacterium Staphylococcus aureus CIP52.1 may be used in order to determine for each test compound the minimum inhibitory concentration for the bacterium, or MIC, expressed in μM.
The technique employed to determine the minimum inhibitory concentration or MIC was that described in the publication entitled “National committee for clinical laboratory standards” Vol. 13, No. 25, December 1993; Methods for dilution antimicrobial susceptibility tests for bacteria that grow aerobically-third edition, approved standard”. This minimum inhibitory concentration gives an indication as to the bacteriostatic effect of the test compounds, i.e., the capacity of these compounds to stop the proliferation of the bacterium.
Each compound of the invention was tested at least three times. The average of the test results was calculated, along with the standard deviation. The reference compound used was gentamycin.
The technique employed to determine the MIC values was the same as that described in Example 1.
as §1

[4] abbreviates: CIP52, Table II, Example 1, bacteriostatic effect.
The mark [5] stands for this setting: CIP52, Table III, Example 2, comparison with retinaldehydes.

In general, MIC refers to the smallest concentration in the dilution series that meets the test's criterion for growth inhibition. As to `COc1c(O)cc(-c2ccc3cc(C(=O)O)ccc3c2)cc1C12CC3CC(CC(C3)C1)C2` [Compound 1, 6-[3-(1-Adamantyl)-4-methoxy-5-hydroxyphenyl]-2-naphthoic acid], the minimum inhibitory concentration (MIC) amounted to 12.5 µM (≈ 5.36 µg/mL) in assay [1], 1.04 µM (≈ 0.446 µg/mL) in assay [3] (setting [4]) and 1.3 µM (≈ 0.557 µg/mL) in assay [3] (setting [5]). Besides, the “biological activity at RAR receptor (antagonist or agonist type)” value in assay [2] is “RAR receptor agonist type”.
As for `COCOc1cccc(C=CC#Cc2ccc(C(=O)O)cc2)c1-c1ccc(C)cc1` [Compound 2, 4-[4-(6-Methoxymethoxy-4′-methylbiphenyl-2-yl)but-3-en-1-ynyl]benzoic acid], the MIC in assay [1] was 16.6 µM (≈ 6.63 µg/mL); in assay [3] (setting [4]) it was 1.04 µM (≈ 0.414 µg/mL); in assay [3] (setting [5]), 2.45 µM (≈ 0.976 µg/mL). The “biological activity at RAR receptor (antagonist or agonist type)” value in assay [2] was “RAR receptor antagonist type”.
The like results for `CC(C)(C)C1=CC(=CC#Cc2ccc(C(=O)O)cc2)C=C(C(C)(C)C)C1=O` [Compound 5, 4-[3-(3,5-Di-tert-butyl-4-oxocyclohexa-2,5-dienylidene)prop-1-ynyl]benzoic acid] were, in that order, 13.2 µM (≈ 4.78 µg/mL), 1.25 µM (≈ 0.453 µg/mL), 3.3 µM (≈ 1.2 µg/mL) and “RAR receptor agonist type”.
